Data reported in PMC3639963, “A New Class of Small Molecule Inhibitor of BMP Signaling” (PLoS ONE, 2013).

Key:
Assay in all cases: Nanosyn kinase profiling
Format in all cases: biochemical
Conditions in all cases: read-out: Percentage inhibition; for inhibition at 0.1 µM: 0.1 µM inhibitor; for inhibition at 1 µM: 1 µM inhibitor
AKT2 = target: T1, AKT2 (Homo sapiens, UniProt P31751)
T1 construct: purchased Nanosyn (enzymatic panel); SGC in-house recombinant human kinases (DSF panel); Invitrogen (ALK1-6)
How it was run: (§1)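 Percent inhibition of each kinase was measured with the inhibitor at 0.1 µM and at 1 µM, as part of a 200-kinase human selectivity panel.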

BLK = target: T2, BLK (Homo sapiens, UniProt P51451)
T2 construct: purchased Nanosyn (enzymatic panel); SGC in-house recombinant human kinases (DSF panel); Invitrogen (ALK1-6)
How it was run: as §1

ERBB4 = target: T3, ERBB4 (Homo sapiens, UniProt Q15303)
T3 construct: purchased Nanosyn (enzymatic panel); SGC in-house recombinant human kinases (DSF panel); Invitrogen (ALK1-6)
How it was run: as §1

FER = target: T4, FER (Homo sapiens, UniProt P16591)
T4 construct: purchased Nanosyn (enzymatic panel); SGC in-house recombinant human kinases (DSF panel); Invitrogen (ALK1-6)
How it was run: as §1

GRK6 = target: T5, GRK6 (Homo sapiens, UniProt P43250)
T5 construct: purchased Nanosyn (enzymatic panel); SGC in-house recombinant human kinases (DSF panel); Invitrogen (ALK1-6)
How it was run: as §1

MEK1 = target: T6, MEK1 (Homo sapiens, UniProt Q02750)
T6 construct: purchased Nanosyn (enzymatic panel); SGC in-house recombinant human kinases (DSF panel); Invitrogen (ALK1-6)
How it was run: as §1

MST1 = target: T7, MST1 (Homo sapiens, UniProt Q13043)
T7 construct: purchased Nanosyn (enzymatic panel); SGC in-house recombinant human kinases (DSF panel); Invitrogen (ALK1-6)
T7 sequence (Q13043 1-487): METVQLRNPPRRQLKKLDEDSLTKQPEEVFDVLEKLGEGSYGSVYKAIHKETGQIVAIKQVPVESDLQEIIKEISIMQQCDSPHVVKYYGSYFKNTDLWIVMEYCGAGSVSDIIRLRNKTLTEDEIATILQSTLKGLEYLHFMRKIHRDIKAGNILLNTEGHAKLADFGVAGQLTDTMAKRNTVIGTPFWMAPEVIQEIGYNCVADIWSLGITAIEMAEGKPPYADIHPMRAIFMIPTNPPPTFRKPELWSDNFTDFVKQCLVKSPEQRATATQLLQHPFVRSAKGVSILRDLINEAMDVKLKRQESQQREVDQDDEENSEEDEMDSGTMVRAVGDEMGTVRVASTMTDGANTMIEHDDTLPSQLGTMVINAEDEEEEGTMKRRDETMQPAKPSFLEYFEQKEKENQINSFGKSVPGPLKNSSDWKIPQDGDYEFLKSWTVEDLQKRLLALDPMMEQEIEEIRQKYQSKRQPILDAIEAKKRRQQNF
How it was run: as §1

MST2 = target: T8, MST2 (Homo sapiens, UniProt Q13188)
T8 construct: purchased Nanosyn (enzymatic panel); SGC in-house recombinant human kinases (DSF panel); Invitrogen (ALK1-6)
T8 sequence (Q13188 1-491): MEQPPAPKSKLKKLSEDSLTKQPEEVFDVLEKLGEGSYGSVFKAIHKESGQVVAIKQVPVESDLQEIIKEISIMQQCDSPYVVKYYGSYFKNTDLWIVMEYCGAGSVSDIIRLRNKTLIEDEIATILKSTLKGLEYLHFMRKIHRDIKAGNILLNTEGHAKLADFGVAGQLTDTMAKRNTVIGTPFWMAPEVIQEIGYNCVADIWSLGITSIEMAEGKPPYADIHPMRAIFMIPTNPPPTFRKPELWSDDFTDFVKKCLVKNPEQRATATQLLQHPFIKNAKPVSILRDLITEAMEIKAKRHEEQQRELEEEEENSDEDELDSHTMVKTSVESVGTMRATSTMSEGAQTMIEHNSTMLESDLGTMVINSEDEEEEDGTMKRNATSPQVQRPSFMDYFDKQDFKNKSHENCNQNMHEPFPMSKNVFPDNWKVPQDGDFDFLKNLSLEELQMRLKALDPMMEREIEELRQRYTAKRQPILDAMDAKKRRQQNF
How it was run: as §1

MST4 = target: T9, MST4 (Homo sapiens, UniProt Q9P289)
T9 construct: purchased Nanosyn (enzymatic panel); SGC in-house recombinant human kinases (DSF panel); Invitrogen (ALK1-6)
How it was run: as §1

PRAK = target: T10, PRAK (Homo sapiens, UniProt Q8IW41)
T10 construct: purchased Nanosyn (enzymatic panel); SGC in-house recombinant human kinases (DSF panel); Invitrogen (ALK1-6)
T10 sequence (Q8IW41 1-473): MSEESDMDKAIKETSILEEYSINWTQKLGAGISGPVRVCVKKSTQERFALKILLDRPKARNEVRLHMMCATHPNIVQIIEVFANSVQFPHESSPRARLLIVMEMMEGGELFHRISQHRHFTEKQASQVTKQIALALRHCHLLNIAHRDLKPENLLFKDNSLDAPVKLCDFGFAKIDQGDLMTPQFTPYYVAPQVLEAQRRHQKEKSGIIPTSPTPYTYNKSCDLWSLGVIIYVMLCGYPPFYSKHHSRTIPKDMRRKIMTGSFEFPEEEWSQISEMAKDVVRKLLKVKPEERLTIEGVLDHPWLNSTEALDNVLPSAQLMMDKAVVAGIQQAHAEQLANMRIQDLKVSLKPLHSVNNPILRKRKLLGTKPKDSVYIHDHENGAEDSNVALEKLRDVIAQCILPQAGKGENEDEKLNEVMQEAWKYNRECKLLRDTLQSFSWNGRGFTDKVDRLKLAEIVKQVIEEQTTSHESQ
How it was run: as §1

SRPK1 = target: T11, SRPK1 (Homo sapiens, UniProt Q96SB4)
T11 construct: purchased Nanosyn (enzymatic panel); SGC in-house recombinant human kinases (DSF panel); Invitrogen (ALK1-6)
How it was run: as §1

T11 sequence (Q96SB4 whole entry): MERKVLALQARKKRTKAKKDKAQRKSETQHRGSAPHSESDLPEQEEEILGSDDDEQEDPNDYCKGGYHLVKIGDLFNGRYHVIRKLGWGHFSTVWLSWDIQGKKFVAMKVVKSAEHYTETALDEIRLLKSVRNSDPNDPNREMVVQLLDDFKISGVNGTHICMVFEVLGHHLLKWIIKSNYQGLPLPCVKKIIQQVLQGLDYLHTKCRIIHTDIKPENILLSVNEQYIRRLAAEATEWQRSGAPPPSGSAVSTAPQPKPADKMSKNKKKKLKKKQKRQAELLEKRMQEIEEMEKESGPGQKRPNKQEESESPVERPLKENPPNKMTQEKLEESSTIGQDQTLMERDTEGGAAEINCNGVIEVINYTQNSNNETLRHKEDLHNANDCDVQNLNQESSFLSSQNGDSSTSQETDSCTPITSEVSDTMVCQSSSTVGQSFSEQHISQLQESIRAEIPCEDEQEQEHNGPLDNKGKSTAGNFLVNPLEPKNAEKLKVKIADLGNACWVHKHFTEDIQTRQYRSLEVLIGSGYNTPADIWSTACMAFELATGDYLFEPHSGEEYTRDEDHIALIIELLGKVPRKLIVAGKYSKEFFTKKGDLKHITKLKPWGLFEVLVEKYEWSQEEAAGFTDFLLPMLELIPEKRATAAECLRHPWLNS
T4 sequence (P16591 whole entry): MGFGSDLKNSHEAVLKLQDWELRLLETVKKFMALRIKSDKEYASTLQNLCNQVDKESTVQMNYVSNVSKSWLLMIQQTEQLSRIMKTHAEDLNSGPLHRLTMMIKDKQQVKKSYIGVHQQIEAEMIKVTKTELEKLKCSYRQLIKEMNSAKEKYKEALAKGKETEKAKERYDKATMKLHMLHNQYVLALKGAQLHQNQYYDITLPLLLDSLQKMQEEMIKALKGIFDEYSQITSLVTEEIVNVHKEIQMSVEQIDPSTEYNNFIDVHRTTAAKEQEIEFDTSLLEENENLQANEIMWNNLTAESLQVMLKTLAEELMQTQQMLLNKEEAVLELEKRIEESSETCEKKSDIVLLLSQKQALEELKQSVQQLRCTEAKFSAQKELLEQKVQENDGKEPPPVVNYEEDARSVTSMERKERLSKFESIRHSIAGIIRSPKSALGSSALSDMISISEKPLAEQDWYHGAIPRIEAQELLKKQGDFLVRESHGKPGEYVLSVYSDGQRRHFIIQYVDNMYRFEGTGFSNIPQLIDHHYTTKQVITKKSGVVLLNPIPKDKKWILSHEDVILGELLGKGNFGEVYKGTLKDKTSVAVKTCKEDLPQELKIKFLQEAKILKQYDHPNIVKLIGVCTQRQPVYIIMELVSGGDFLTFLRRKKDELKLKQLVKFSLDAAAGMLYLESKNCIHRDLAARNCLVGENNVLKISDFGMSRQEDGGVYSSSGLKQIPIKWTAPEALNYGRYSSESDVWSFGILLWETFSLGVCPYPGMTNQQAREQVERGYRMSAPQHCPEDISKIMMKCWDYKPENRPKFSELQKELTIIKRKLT
T5 sequence (P43250 whole entry): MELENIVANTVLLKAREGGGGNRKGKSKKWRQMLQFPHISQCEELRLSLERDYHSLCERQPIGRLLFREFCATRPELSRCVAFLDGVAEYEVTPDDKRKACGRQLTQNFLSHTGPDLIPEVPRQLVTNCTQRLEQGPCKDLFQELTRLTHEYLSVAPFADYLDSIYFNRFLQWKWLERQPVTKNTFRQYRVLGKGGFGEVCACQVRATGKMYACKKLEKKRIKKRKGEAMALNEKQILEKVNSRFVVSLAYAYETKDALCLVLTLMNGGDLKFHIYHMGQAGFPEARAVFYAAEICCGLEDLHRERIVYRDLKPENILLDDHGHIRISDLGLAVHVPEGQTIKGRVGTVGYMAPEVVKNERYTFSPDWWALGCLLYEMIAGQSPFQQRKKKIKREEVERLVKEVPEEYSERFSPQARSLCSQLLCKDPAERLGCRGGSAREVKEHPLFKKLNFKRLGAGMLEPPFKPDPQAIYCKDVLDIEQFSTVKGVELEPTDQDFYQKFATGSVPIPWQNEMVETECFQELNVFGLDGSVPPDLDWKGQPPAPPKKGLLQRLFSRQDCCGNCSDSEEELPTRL
T9 sequence (Q9P289 whole entry): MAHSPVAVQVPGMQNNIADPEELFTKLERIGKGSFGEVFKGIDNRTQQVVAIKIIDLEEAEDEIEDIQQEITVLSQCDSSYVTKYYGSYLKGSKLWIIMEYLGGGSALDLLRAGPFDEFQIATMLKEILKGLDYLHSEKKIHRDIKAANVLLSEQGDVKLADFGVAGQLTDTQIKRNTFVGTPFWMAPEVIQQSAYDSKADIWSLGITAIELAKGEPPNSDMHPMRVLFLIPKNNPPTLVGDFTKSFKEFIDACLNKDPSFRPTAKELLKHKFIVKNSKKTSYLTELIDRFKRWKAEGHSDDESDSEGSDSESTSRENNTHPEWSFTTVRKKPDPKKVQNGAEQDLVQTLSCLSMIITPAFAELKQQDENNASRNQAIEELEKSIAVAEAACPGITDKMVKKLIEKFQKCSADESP
T2 sequence (P51451 whole entry): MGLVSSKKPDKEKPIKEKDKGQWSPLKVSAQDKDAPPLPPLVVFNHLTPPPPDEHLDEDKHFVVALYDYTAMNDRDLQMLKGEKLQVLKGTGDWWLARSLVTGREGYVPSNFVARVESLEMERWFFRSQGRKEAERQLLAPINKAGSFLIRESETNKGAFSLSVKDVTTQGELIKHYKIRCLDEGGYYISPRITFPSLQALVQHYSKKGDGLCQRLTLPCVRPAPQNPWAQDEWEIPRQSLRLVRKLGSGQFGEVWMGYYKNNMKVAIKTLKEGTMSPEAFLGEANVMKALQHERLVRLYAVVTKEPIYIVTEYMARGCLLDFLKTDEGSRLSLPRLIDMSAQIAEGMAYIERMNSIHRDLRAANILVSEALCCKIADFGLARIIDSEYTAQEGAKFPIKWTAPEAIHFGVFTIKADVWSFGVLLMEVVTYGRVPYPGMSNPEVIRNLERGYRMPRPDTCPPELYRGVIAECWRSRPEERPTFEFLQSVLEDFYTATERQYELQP
T1 sequence (P31751 whole entry): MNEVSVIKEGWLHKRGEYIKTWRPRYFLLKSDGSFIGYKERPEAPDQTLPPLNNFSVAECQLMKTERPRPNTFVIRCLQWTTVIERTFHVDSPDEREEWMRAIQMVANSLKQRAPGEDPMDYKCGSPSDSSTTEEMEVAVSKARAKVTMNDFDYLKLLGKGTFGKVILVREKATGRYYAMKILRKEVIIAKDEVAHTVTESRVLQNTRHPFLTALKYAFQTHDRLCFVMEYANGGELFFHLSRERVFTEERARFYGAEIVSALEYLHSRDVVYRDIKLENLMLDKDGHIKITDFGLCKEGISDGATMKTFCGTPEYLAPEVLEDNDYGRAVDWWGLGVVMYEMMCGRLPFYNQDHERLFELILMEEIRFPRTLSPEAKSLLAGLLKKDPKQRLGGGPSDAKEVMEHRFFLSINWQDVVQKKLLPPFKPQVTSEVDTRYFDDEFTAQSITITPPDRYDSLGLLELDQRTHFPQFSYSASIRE
T6 sequence (Q02750 whole entry): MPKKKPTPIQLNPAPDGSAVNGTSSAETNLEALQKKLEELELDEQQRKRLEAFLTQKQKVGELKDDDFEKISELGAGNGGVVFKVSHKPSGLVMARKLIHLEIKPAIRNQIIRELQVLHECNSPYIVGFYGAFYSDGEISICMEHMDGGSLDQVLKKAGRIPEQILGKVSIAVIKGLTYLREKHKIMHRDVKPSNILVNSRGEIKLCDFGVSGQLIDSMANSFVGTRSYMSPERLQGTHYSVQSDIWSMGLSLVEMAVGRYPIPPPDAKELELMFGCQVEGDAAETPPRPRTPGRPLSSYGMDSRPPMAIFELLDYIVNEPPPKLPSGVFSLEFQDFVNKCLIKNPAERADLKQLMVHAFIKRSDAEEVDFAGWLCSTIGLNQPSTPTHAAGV

Row | Compound | inhibition at 0.1 µM (AKT2) [%] | inhibition at 1 µM (AKT2) [%] | inhibition at 0.1 µM (BLK) [%] | inhibition at 1 µM (BLK) [%] | inhibition at 0.1 µM (ERBB4) [%] | inhibition at 1 µM (ERBB4) [%] | inhibition at 0.1 µM (FER) [%] | inhibition at 1 µM (FER) [%] | inhibition at 0.1 µM (GRK6) [%] | inhibition at 1 µM (GRK6) [%] | inhibition at 0.1 µM (MEK1) [%] | inhibition at 1 µM (MEK1) [%] | inhibition at 0.1 µM (MST1) [%] | inhibition at 1 µM (MST1) [%] | inhibition at 0.1 µM (MST2) [%] | inhibition at 1 µM (MST2) [%] | inhibition at 0.1 µM (MST4) [%] | inhibition at 1 µM (MST4) [%] | inhibition at 0.1 µM (PRAK) [%] | inhibition at 1 µM (PRAK) [%] | further results
1 | COc1cc(-c2cc(-c3cccc(O)c3)cnc2N)cc(OC)c1OC [K02288, 3-[6-amino-5-(3,4,5-trimethoxy-phenyl)-pyridin-3-yl]-phenol] | -2 | -1 | 3.2 | 27 | -5 | 0.9 | 0.8 | 7.5 | 0.2 | 1.4 | -1 | 10 | -1 | 1.1 | -2 | -1 | 0.4 | 0 | 0 | 0 | inhibition at 0.1 µM (SRPK1): 3.2%; inhibition at 1 µM (SRPK1): 2.7%
2 | c1ccc2c(-c3cnn4cc(-c5ccc(N6CCNCC6)cc5)cnc34)ccnc2c1 [LDN-193189] | 1 | 1.8 | 3.9 | 24 | 6.1 | 11 | 2.8 | 3.7 | 0 | 0.2 | 1.4 | 1 | 4 | 7.9 | 5.1 | 6 | -1 | -5 | 0.8 | 0.1 | inhibition at 0.1 µM (SRPK1): -1%; inhibition at 1 µM (SRPK1): -2%
